According to patent publication US10681909B2, “Herbicidal triazoles” (FMC Corporation, priority 2014, dated 2020):

Legend:
ragweed = assay: Test A preemergence; format: in vivo, Ambrosia elatior; details: 0 to 100 scale (0 no effect, 100 complete control)
How it was run: (§1)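 Seeds sown in loam soil–sand blend received a directed preemergence soil spray of test chemical in non-phytotoxic solvent with surfactant; postemergence plants, 2 to 10 cm at one- to two-leaf stage, were sprayed with the same formulation. Injury visually rated versus untreated controls after ~10 d in greenhouse, 0–100 scale.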

blackgrass = assay: Test A postemergence; format: in vivo, Alopecurus myosuroides; details: 0 to 100 scale (0 no effect, 100 complete control), approx. 10 d
How it was run: as §1

nutsedge, yellow = assay: Test C preemergence; format: in vivo, Cyperus esculentus; details: for Plant response rating (scale of 0 to 100 where 0 is no effect and 100 is complete control): Nutsedge, Yellow, preemergence; for Nutsedge, Yellow plant response rating (0 to 100): Preemergence, visual rating after 13 to 15 d
Text: Seeds of plant species selected from blackgrass (Alopecurus myosuroides), ryegrass, Italian (Italian ryegrass, Lolium multiflorum), wheat (winter wheat, Triticum aestivum), galium (catchweed bedstraw, Galium aparine), corn (Zea mays), crabgrass, large (large crabgrass, Digitaria sanguinalis), foxtail, giant, (giant foxtail, Setaria faberii), johnsongrass (Sorghum halepense), lambsquarters (Chenopodium album), morningglory (Ipomoea coccinea), nutsedge, yellow (yellow nutsedge, Cyperus esculentus), pigweed (Amaranthus retroflexus), ragweed (common ragweed, Ambrosia elatior), soybean (Glycine max), barnyardgrass (Echinochloa crus-galli), oilseed rape (Brassica napus), waterhemp (common waterhemp, Amaranthus rudis), and velvetleaf (Abutilon theophrasti) were planted into a blend of loam soil and sand and treated preemergence with test chemicals formulated in a non-phytotoxic solvent mixture which included a surfactant. At the same time, plants selected from these crop and weed species and also chickweed (common chickweed, Stellaria media), oat, wild (wild oat, Avena fatua), and kochia (Kochia scoparia), were planted in pots containing Sunshine Redi-Earth® planting medium comprising spaghnum peat moss, vermiculite, starter nutrients and dolomitic limestone and treated with postemergence applications of test chemicals formulated in the same manner. Plants ranged in height from 2 to 18 cm (1- to 4-leaf stage) for postemergence treatments. […] A dash (-) response means no test result.

speedwell [1] = assay: Test D preemergence; format: in vivo, Veronica persica; details: for Plant response rating (0 to 100), Speedwell: 16 g ai/ha, 0 is no effect, 100 is complete control; for Plant response rating: Speedwell: scale 0 to 100
Text: (§2) Seeds of plant species selected from bluegrass (annual bluegrass, Poa annua), blackgrass (Alopecurus myosuroides), canarygrass (Phalaris minor), chickweed (common chickweed, Stellaria media), galium (catchweed bedstraw, Galium aparine), bromegrass, down (downy bromegrass, Bromus tectorum), Russian thistle (Salsola kali), field poppy (Papaver rhoeas), field violet (Viola arvensis), foxtail, green (green foxtail, Setaria viridis), deadnettle (henbit deadnettle, Lamium amplexicaule), ryegrass, Ital. (Italian ryegrass, Lolium multiflorum), kochia (Kochia scoparia), lambsquarters (Chenopodium album), oilseed rape (Brassica napus), pigweed (Amaranthus retroflexus), chamomile (scentless chamomile, Matricaria inodora), speedwell (bird's-eye speedwell, Veronica persica), barley, spring (spring barley, Hordeum vulgare), wheat, spring (spring wheat, Triticum aestivum), buckwheat, wild (wild buckwheat, Polygonum convolvulus), wild mustard (Sinapis arvensis), oat, wild (wild oat, Avena fatua), radish, wild (wild radish, Raphanus raphanistrum), […]), barley, winter (winter barley, Hordeum vulgare), and wheat, winter (winter wheat, Triticum aestivum) were planted into a silt loam soil and treated preemergence with test chemicals formulated in a non-phytotoxic solvent mixture which included a surfactant. At the same time, these species were planted in pots containing Sunshine Redi-Earth® planting medium comprising spaghnum peat moss, vermiculite, starter nutrients and dolomitic limestone and treated with postemergence applications of the test chemicals formulated in the same manner. Plants ranged in height from 2 to 18 cm (1- to 4-leaf stage). Treated plants and controls were maintained in a controlled growth environment for 14 to 21 d after which time all species were compared to controls and visually evaluated. […] A dash (-) response means no test result.

galium = assay: Test D postemergence; format: in vivo, Galium aparine; details: scale 0 to 100
Text: as §2

foxtail, green = assay: Test D postemergence; format: in vivo, Setaria viridis; details: scale 0 to 100
Text: as §2

speedwell [2] = assay: Test D postemergence; format: in vivo, Veronica persica; details: scale 0 to 100
Text: as §2

Row | Structure (SMILES) | Plant response rating, Ragweed (ragweed; 125 g ai/ha) | Plant response rating, Blackgrass (blackgrass; 125 g ai/ha) | Plant response rating (scale of 0 to 100 where 0 is no effect and 100 is complete control) (nutsedge, yellow; 125 g ai/ha) | Plant response rating (scale of 0 to 100 where 0 is no effect and 100 is complete control) (nutsedge, yellow; 250 g ai/ha) | Nutsedge, Yellow plant response rating (0 to 100) (nutsedge, yellow; 31 g ai/ha) | Nutsedge, Yellow plant response rating (0 to 100) (nutsedge, yellow; 62 g ai/ha) | Plant response rating (0 to 100), Speedwell (speedwell [1]) | Plant response rating: Speedwell (speedwell [1]; 62 g ai/ha) | Plant response rating: Speedwell (speedwell [1]; 125 g ai/ha) | Plant response rating: Galium (galium; 16 g ai/ha) | Plant response rating: Galium (galium; 31 g ai/ha) | Plant response rating: Galium (galium; 62 g ai/ha) | Plant response rating: Galium (galium; 125 g ai/ha) | Plant response rating: Foxtail, Green (foxtail, green; 16 g ai/ha) | Plant response rating: Foxtail, Green (foxtail, green; 31 g ai/ha) | Plant response rating: Foxtail, Green (foxtail, green; 62 g ai/ha) | Plant response rating: Foxtail, Green (foxtail, green; 125 g ai/ha) | Plant response rating: Speedwell (speedwell [2]; 16 g ai/ha) | Plant response rating: Speedwell (speedwell [2]; 31 g ai/ha) | Plant response rating: Speedwell (speedwell [2]; 62 g ai/ha) | other results
1 | FC(F)(F)COc1nc(-c2ccc(Cl)cc2)nn1Cc1ccnc(C(F)(F)F)c1 [Compound 31] | 50 | 50 | 5 | 5 | 0 | 0 | 100 | 100 | 100 | 70 | 75 | 80 | 90 | 70 | 80 | 80 | 85 | 95 | 90 | 100 | Plant response rating, Ragweed (ragweed; 500 g ai/ha): 70; Plant response rating, Blackgrass (blackgrass; 500 g ai/ha): 80; Plant response rating: Speedwell (speedwell [2]; 125 g ai/ha): 100
2 | CCOc1nc(-c2ccc(C(F)(F)F)cc2)nn1Cc1ccnc(C(F)(F)F)c1 [Compound 35, 4-[[5-ethoxy-3-[4-(trifluoromethyl)phenyl]-1H-1,2,4-triazole-1-yl]methyl]-2-(trifluoromethyl)pyridine] | 50 | 50 | 0 | 0 | 0 | 0 | 100 | 100 | 100 | 70 | 75 | 80 | 80 | 70 | 80 | 95 | 95 | 75 | 85 | 90 | Plant response rating, Ragweed (ragweed; 31 g ai/ha): 20; Plant response rating, Blackgrass (blackgrass; 31 g ai/ha): 30; Plant response rating: Speedwell (speedwell [2]; 125 g ai/ha): 100
